Data set [1] is described as follows: Thermal melt stability: onset time of crosslinking, SIS-rubber based formulation. The format is physicochemical. Here is the method:
The thermal melt stability was assessed by recording the melt viscosity during heating. Crosslinking of the sample was recorded as an increase in viscosity. Oscillatory rheological measurements were carried out using a Kinexus lab+rheometer (Malvern Instruments Ltd., UK) under isothermal (T=160° C.) conditions. Data was recorded using the corresponding software rSPACE version 1.76 (Malvern Instruments Ltd., UK). As measurement geometry, parallel plates with a diameter of 2.5 cm of the upper plate were chosen. As sample, a disc of a relief precursor with a diameter of 2.5 cm was used. Prior to measurement, any foils (e.g. the cover sheet) and mask layers were removed from the relief precursor. Measurements were carried out in oscillation single frequency mode. The frequency was set to 1 Hz. The gap between the parallel plates was set constant to the respective sample thickness. Data points were recorded every 15 s. The complex shear viscosity η* was monitored over time t. The “onset time of crosslinking” was identified as “the time when the difference quotient Δη*/Δt is ≥1 Pa, with Δt=15 s”. A higher onset time indicates a higher thermal stability and stability towards mechanical stress.
In this example, another trial formulation based on a SIS tri-block copolymer was used. […]

Data set [2] in a line: Kneading trials at 180° C., onset of crosslinking seen as increase in torque. Particulars: kneading at 180° C. for 60 min, SBS binder plus stabilizer. In kind it is physicochemical. As for the experimental part:
Kneading trials were carried out using a ThermoFisher Scientifc Haake kneading device equipped with a Haake PolyLab OS RheoDrive 7 control unit, a Haake Rheomix 600 OS heating and kneading chamber with Roller Rotors R600. The torque and the sample temperature were recorded using the software PolySoft, version 2.1.0.1. For the measurement, a temperature of 180° C. was applied. The measurement was carried out for 60 min, respectively. The components were added to the kneading device as solids and were allowed to be mixed in the kneading device.
In the given sample, the amount of stabilizer was varied in the range of 0 to 1.0 parts by weight and the excess was counterbalanced by the amount of binder, respectively.
An increase in torque indicated the onset of crosslinking of the SBS-rubber due to insufficient stabilization. Without additional stabilizer, an increase in torque was observed within the first 10 min of measurement time. With BHT as stabilizer, an increase in torque was detected after 28 min of heating at 180° C. With ascorbyl palmitate, the best result was achieved, where crosslinking was observed after 50 min.

Data set [3] can be described thus: Printing plate evaluation: halftone and tonal values at 146 lpi. Particulars: difference of tonal value of 5% halftone at 146 lpi versus plate without additional stabilizer. Here is the method: To obtain a cliché, the laser ablatable mask on the front side was imaged using a TfxX 20 laser (Flint Group Germany GmbH, Germany, rotational speed: 10 to 11 rounds/s, power: 35 W (100% intensity)). The relief precursor was exposed to UV light from the backside through the carrier foil for 20 to 40 s and from the front side through the mask layer for 15 min. During the exposure at room temperature (being around 18-25° C.), no active heating was present. As a result of the crosslinking reaction due to the exposure, the temperature of the plate rose to around 40° C. (machine type: Combi FIII (Flint Group Germany GmbH, Germany), UVA intensity […], UVA tube type: Philips TL 80 W/10-R). […]
In this example, the effect of the stabilizer on the tonal values of the resulting printing plates was assessed since conventional stabilizers can impact tonal values as they may hinder curing. […] The stabilizer impact on the tonal value was calculated as the difference of the tonal value of the 5% halftone at 146 lpi of a plate without any additional stabilizer compared to the respective tonal value of a plate comprising a stabilizer.

As to `CCCCCCCCCCCCCCCC(=O)OC[C@H](O)[C@H]1OC(=O)C(O)=C1O` [Ascorbyl palmitate], the “Effect on the onset time of crosslinking compared with an equimolar amount of BHT” value in data set [1] is on record as “more than five times as high”. Moreover, in data set [2], the Onset time t/min is reported as 50 min. Moreover, the “Stabilizer impact on tonal value” in data set [3] came out at 0.8%.

For the origin of these results see patent publication US20250019520A1, “RELIEF PRECURSORS WITH ENHANCED STABILITY” (XSYS Germany GmbH, priority 2023, published 2025).
